Data published in US20240108610A1, “RECTAL ADMINISTRATION OF ROFLUMILAST FOR THE TREATMENT OF CROHN'S DISEASE” (King Abdulaziz University, priority 2022, published 2024).

How the values were obtained:
IL-6 = assay: Serum IL-6 ELISA in TNBS-induced colitis; type: in vivo, rat; conditions: means±SE, n = 8
Method: Chronic colitis was induced by weekly rectal injections of increasing doses of TNBS over 6 weeks (15, 30, 45, 60, 60, and 60 mg from day 0 to day 35), as previously described (4,12). Briefly, after food deprivation for 24 h, rats were anesthetized with an intraperitoneal injection of 1% isoflurane. TNBS was dissolved in ethanol (50%) and instilled into the colon using a cannula (0.25 mL), and then the rats were held upside down for 3 min to prevent escape of the intracolonic TNBS. Roflumilast was dissolved in dimethyl sulfoxide and diluted in 0.5% carboxymethyl cellulose sodium to a final concentration of 5.0 mg·kg^−1·day^−1 as previously described (13). Five groups of rats (n=8) were established: normal control (NC group), TNBS-treated (TNBS group, positive control), and three TNBS-treated groups that received oral sulfasalazine (SS group, 500 mg/kg) (14), oral roflumilast (by gastric gavage, OR group, 5 mg/kg), or rectal roflumilast (RR group, 5 mg/kg). Treatments were administered once daily in a volume of 200 μL for 15 days starting 48 h after the induction of colitis (from day 37) (15), and the control rats received equal amounts of vehicle. At the end of the treatment period, the rats were evaluated with the colitis activity score. To detect the effects of the treatments on systemic inflammatory processes, blood was collected for measurements of the proinflammatory mediators TNF-α, IL-2, and IL-6. At the end of the 15-day treatment period, the rats were sacrificed by cervical dislocation, and the colon was isolated, cleaned of feces, and measured for weight and length. Colonic myeloperoxidase (MPO) activity and glutathione (GSH) and malonaldehyde (MDA) levels were measured. The colon was examined macroscopically for gross changes and microscopically in sections stained with hematoxylin and eosin (H&E), Masson trichrome, and Periodic Acid Schiff (PAS) stains as well as KI-67 and TNF-α immunostaining. Blood was collected through cardiac puncture. The serum was obtained and stored at −80° C. until analysis. […]

[1] = system: trinitrobenzenesulfonic acid (TNBS)-induced colitis; assay: Disease activity score in TNBS-induced chronic colitis; type: in vivo, rat; conditions: oral, once daily for 15 days; sulfasalazine 500 mg/kg, roflumilast 5 mg/kg; vs TNBS group
Method: Chronic colitis was induced by weekly rectal injections of increasing doses of TNBS over 6 weeks (15, 30, 45, 60, 60, and 60 mg from day 0 to day 35), as previously described (4,12). Briefly, after food deprivation for 24 h, rats were anesthetized with an intraperitoneal injection of 1% isoflurane. TNBS was dissolved in ethanol (50%) and instilled into the colon using a cannula (0.25 mL), and then the rats were held upside down for 3 min to prevent escape of the intracolonic TNBS. Roflumilast was dissolved in dimethyl sulfoxide and diluted in 0.5% carboxymethyl cellulose sodium to a final concentration of 5.0 mg·kg^−1·day^−1 as previously described (13). […] At the end of the treatment period, the rats were evaluated with the colitis activity score. […] At the end of the 15-day treatment period, the rats were sacrificed by cervical dislocation, and the colon was isolated, cleaned of feces, and measured for weight and length. Colonic myeloperoxidase (MPO) activity and glutathione (GSH) and malonaldehyde (MDA) levels were measured. […] The colitis activity index was determined to evaluate the activity of intestinal inflammation as previously described with a slight modification (16). […]

GSH = assay: Colonic GSH in colonic tissue homogenates, TNBS-induced colitis; type: in vivo, rat; conditions: oral, once daily for 15 days; SS 500 mg/kg, OR 5 mg/kg; means±SE, n = 8
Method: Chronic colitis was induced by weekly rectal injections of increasing doses of TNBS over 6 weeks (15, 30, 45, 60, 60, and 60 mg from day 0 to day 35), as previously described (4,12). Briefly, after food deprivation for 24 h, rats were anesthetized with an intraperitoneal injection of 1% isoflurane. TNBS was dissolved in ethanol (50%) and instilled into the colon using a cannula (0.25 mL), and then the rats were held upside down for 3 min to prevent escape of the intracolonic TNBS. Roflumilast was dissolved in dimethyl sulfoxide and diluted in 0.5% carboxymethyl cellulose sodium to a final concentration of 5.0 mg·kg^−1·day^−1 as previously described (13). Five groups of rats (n=8) were established: normal control (NC group), TNBS-treated (TNBS group, positive control), and three TNBS-treated groups that received oral sulfasalazine (SS group, 500 mg/kg) (14), oral roflumilast (by gastric gavage, OR group, 5 mg/kg), or rectal roflumilast (RR group, 5 mg/kg). […] At the end of the treatment period, the rats were evaluated with the colitis activity score. […] At the end of the 15-day treatment period, the rats were sacrificed by cervical dislocation, and the colon was isolated, cleaned of feces, and measured for weight and length. Colonic myeloperoxidase (MPO) activity and glutathione (GSH) and malonaldehyde (MDA) levels were measured. […]

[2] = system: TNBS-induced reduction in colon length; conditions: 1 and 5 mg-kg−1·day−1; another study (13); cited from earlier work
[3] = oral, once daily for 15 days, SS 500 mg/kg, OR 5 mg/kg

Structure (SMILES)	serum level of IL-6 (IL-6; [3])	Disease activity score [1]	colonic level of GSH (GSH)	TNBS-induced reduction in colon length [2]	elevated colonic concentration of TNF-α [2]	serum level of IL-6 (IL-6; rectal, 5 mg/kg once daily for 15 days)
O=C(O)c1cc(/N=N/c2ccc(S(=O)(=O)Nc3ccccn3)cc2)ccc1O [sulfasalazine]	16.14 ± 1.13^k, m pg/mL	greatest decrease	14.73 ± 0.49^h, i mmol/mg	–	–	–
O=C(Nc1c(Cl)cncc1Cl)c1ccc(OC(F)F)c(OCC2CC2)c1 [roflumilast]	21.85 ± 1.00^j, k, l pg/mL	decreased the score more than rectal roflumilast	–	partially reverses	decreases	28.93 ± 0.50^j, k pg/mL
